The values that follow come from US10759799B2, “Indazole containing macrocycles and therapeutic uses thereof” (Samumed, LLC, priority 2018, dated 2020).

Holding throughout (assay type): cell-based
Test [1] has as its system primary human mesenchymal stem cells (hMSCs). In words: Chondrogenesis induction in hMSCs (Rhodamine B staining intensity, EC50). The following applies: 6 days, Rhodamine B staining intensity of nodules. The text has this:
(§1) Representative compounds were screened using primary human mesenchymal stem cells (hMSCs) to determine their ability to induce chondrogenesis (process by which cartilage is developed).
Primary human mesenchymal stem cells (hMSCs) were purchased from Lonza (Walkersville, Md.) and expanded in Mesenchymal Stem Cell Growth Media (Lonza). Cells between passage 2 and 4 were used for the experiments.
To image chondrogenic nodules, the cells were fixed using 4% formaldehyde (Electron Microscopy Sciences), and stained with 2 μg/mL Rhodamine B (Sigma-Aldrich) and 20 μM Nile Red (Sigma-Aldrich) [Johnson K., et. al, A Stem Cell-Based Approach to Cartilage Repair, Science, (2012), 336(6082). […] Rhodamine B staining intensity of nodules in each well was normalized to the average of 3 DMSO treated wells on the same plate using Excel (Microsoft Inc.). The normalized averages (fold change over DMSO) of 3 replicate wells for each compound concentration were calculated. EC50 values were calculated using non-linear regression curve fitting in Prism 8 (Graphpad Inc.). Due to solubility limitations of some of the compounds, curve fitting was incomplete, and the highest observed activity was extrapolated to the insoluble doses for accurate EC50 determinations.
EC50 values are reported. Further, using TGF-β3 as a positive control, the concentration of representative compounds required to induce equivalent levels of chondrogenesis is reported. In addition, the maximum activity of each compound and the respective dose that each compound reached maximum chondrogenesis activity is reported.

Test [2] has the same test system. In words: Chondrogenesis induction in hMSCs (nodule count, relative to TGF-β3). The conditions noted are these: 6 days; for Conc (nM) of 50% TGF-β3 activity / Max. Activity as % TGF-β3 activity: TGF-β3 10 ng/mL positive control; for Conc (nM) of Max. activity: chondrogenic nodules.
Source text: as §1
Human Mesenchymal Stem Cell Culture: Primary human mesenchymal stem cells (hMSCs) were purchased from Lonza (Walkersville, Md.) and expanded in Mesenchymal Stem Cell Growth Media (Lonza). Cells between passage 3 and 6 were used for the experiments.
Number of nodules in each well was normalized to the average of 3 DMSO treated wells on the same plate using Excel (Microsoft Inc.). The normalized averages (fold change over DMSO) of 3 replicate wells for each compound concentration were calculated. Due to solubility limitations of some of the compounds, curve fitting was incomplete leading to inaccurate EC50 determinations.
Using TGF-β3 as a positive control, the concentration of representative compounds required to induce equivalent levels of chondrogenesis is reported. In addition, the maximum activity of each compound and the respective dose that each compound reached maximum chondrogenesis activity is reported.

For test [3], the system named is primary human fibroblasts derived from IPF patients (LL29 cells). In words: Inhibition of TGF-β1 induced fibrosis (αSMA staining) in LL29 fibroblasts. The following applies: Fibroblast; for EC50: 96 h, LL29 cells, TGF-β1 20 ng/mL, 4 days, % αSMA positive cells. Here is the method:
Representative compounds were screened using primary human fibroblasts (derived from IPF patients) treated with TGF-β1 to determine their ability to inhibit the fibrotic process.
LL29 cells were plated at 1,500 cells/well in 70 μL/well F12 medium supplemented with 1% Fetal Bovine Serum. […] Wells treated with TGF-β1 and containing DMSO were used as positive control, and cells with only DMSO were negative control. […] Following incubation for 4 days, SYTOX green nucleic acid stain (Life Technologies [Thermo Fisher Scientific]) was added to the wells at a final concentration of 1 μM and incubated at room temperature for 30 min.

Test [4] deals with Wnt activity (Sp5-Luc reporter, SW480 colon carcinoma cells). In words: Sp5-Luc reporter gene screening assay for Wnt activity in SW480 cells. The following applies: Homo sapiens; for EC50: Sp5-Luc reporter, SW480 cells, 36 to 48 hours. The text has this: The screening assay for Wnt activity is described as follows. Reporter cell lines can be generated by stably transducing cancer cell lines (e.g., colon cancer) or primary cells (e.g., IEC-6 intestinal cells) with a lentiviral construct that includes a Wnt-responsive promoter driving expression of the firefly luciferase gene.
SW480 colon carcinoma cells were transduced with a lentiviral vector expressing luciferase with a human Sp5 promoter consisting of a sequence of eight TCF/LEF binding sites. SW480 cells stably expressing the Sp5-Luc reporter gene and a hygromycin resistance gene were selected by treatment with 150 μg/mL of hygromycin for 7 days. These stably transduced SW480 cells were expanded in cell culture and used for all further screening activities. […] For Sp5-Luc reporter gene assays, the cells were plated at 4,000 cells/well in 384-well plates with a DMEM medium containing 1% fetal bovine serum, and 1% Penicillin-Streptomycin and incubated for 36 to 48 hours at 37° C. and 5% CO2. Following incubation, 15 μl of BriteLite Plus luminescence reagent (Perkin Elmer) was added to each well of the 384-well assay plates. The plates were placed on an orbital shaker for 2 min and then luminescence was quantified using the Envision (Perkin Elmer) plate reader. Readings were normalized to DMSO only treated cells, and normalized activities were utilized for EC50 calculations using the dose-response log (inhibitor) vs. response-variable slope (four parameters) nonlinear regression feature available in GraphPad Prism 5.0 (or Dotmatics).

Each structure is given as a SMILES string.

`CN1CCCCN(C)c2nccc3[nH]c(nc23)-c2n[nH]c3ccc(cc23)-c2cncc(c2)C1` [Compound 51, (Z)-5,10-Dimethyl-1H,2^1H-5,10-diaza-1(2,4)-imidazo[4,5-c]pyridina-2(3,5)-indazola-3(3,5)-pyridinacyclodecaphane]: the concentration for a half-maximal effect (EC50) was 93 nM in test [1], 203 nM in test [3] and 577 nM in test [4]. In addition, the “Conc (nM) of 50% TGF-β3 activity” value in test [2] was found to be 5000 nM. In addition, in test [2], the “Max. Activity as % TGF-β3 activity” value was found to be 231%. In addition, the “Conc (nM) of Max. activity” value in test [2] is 5000 nM.
In test [1], `CN1Cc2cncc(c2)-c2ccc3[nH]nc(c3c2)-c2nc3c(cccc3[nH]2)-c2cccc(c2)C1` [Compound 22, (Z)-6-Methyl-2^1H,3^1H-6-aza-2(5,3),3(2,4)-diindazola-1(3,5)-pyridina-4(1,3)-benzenacycloheptaphane] registered a concentration giving a half-maximal response (EC50) of 796 nM. Moreover, in test [2], the “Conc (nM) of 50% TGF-β3 activity” value is listed as 50 nM, the “Max. Activity as % TGF-β3 activity” value is 440% and the “Conc (nM) of Max. activity” value worked out at 600 nM. Besides, in test [3], a half-maximal effect (EC50) was put at 35 nM. The concentration for a half-maximal effect (EC50) in test [4] came out at 10 nM.
Regarding `CN1CCCn2cc(nn2)-c2cncc3[nH]c(nc23)-c2n[nH]c3ccc(cc23)-c2cncc(c2)C1` [Compound 45, (1^4Z,2^1Z)-6-Methyl-1 ^1H,2^3H,3^1H-6-aza-2(7,2)-imidazo[4,5-c]pyridina-3(3,5)-indazola-4(3,5)-pyridina-1(4,1)-triazolacyclononaphane], the EC50 in test [1] is 22 nM; in test [3], 1540 nM; in test [4], 338 nM.
Turning to `c1cc2cc(c1)-c1cncc3[nH]c(nc13)-c1n[nH]c3ccc(cc13)-c1cncc(c1)CNC2` [Compound 8, (Z)-2^3H,3H-6-Aza-2(7,2)-imidazo[4,5-c]pyridina-3(3,5)-indazola-4(3,5)-pyridina-1(1,3)-benzenacycloheptaphane], the figures for the concentration giving a half-maximal response (EC50) in test [1], in test [3] and in test [4] were 206 nM, 19 nM and 42 nM, respectively. Further, in test [2], the “Conc (nM) of 50% TGF-β3 activity” value is 200 nM. Also, the “Max. Activity as % TGF-β3 activity” value in test [2] is 558%. In test [2], the “Conc (nM) of Max. activity” value came to 1700 nM.
Regarding `O=C1CCc2cccc(c2)-c2cccc3[nH]c(nc23)-c2n[nH]c3cnc(cc23)-c2cncc(c2)N1` [Compound 6, (Z)-2^1H,3^1H-8-Aza-2(5,3)-pyrazolo[3,4-c]pyridina-3(2,4)-benzo[d]imidazola-1(3,5)-pyridina-4(1,3)-benzenacyclooctaphan-7-one], the 50% effective concentration (EC50) in test [1] came out at 16 nM; in test [3], 29 nM; in test [4] it was 9 nM.
`O=C1CCc2cccc(c2)-c2cccc3[nH]c(nc23)-c2n[nH]c3ccc(cc23)-c2cncc(c2)N1` [Compound 1] displayed a concentration giving a half-maximal response (EC50) in test [1] of 12 nM. In test [2], the “Conc (nM) of 50% TGF-β3 activity” value is 200 nM, the “Max. Activity as % TGF-β3 activity” value is recorded as 497% and the “Conc (nM) of Max. activity” value was determined as 5000 nM. In addition, in test [3], the half-maximal effective concentration (EC50) came out at 24 nM. The EC50 in test [4] was determined as 22 nM.
For `c1cc2cc(c1)-c1cccc3[nH]c(nc13)-c1n[nH]c3ccc(cc13)-c1cncc(c1)CNC2` [Compound 10, (Z)-2^1H,3^1H-6-Aza-2(5,3),3(2,4)-diindazola-1(3,5)-pyridina-4(1,3)-benzenacycloheptaphane], the EC50 in test [1] came out at 10 nM; in test [3], 9980 nM; in test [4], 11 nM. For the same compound, the “Conc (nM) of 50% TGF-β3 activity” value in test [2] stood at 50 nM. For the same compound, the “Max. Activity as % TGF-β3 activity” value in test [2] is given as 607%. For the same compound, in test [2], the “Conc (nM) of Max. activity” value was 600 nM.
Turning to `O=C1CCc2cccc(c2)-c2cccc3[nH]c(nc23)-c2n[nH]c3ncc(cc23)-c2cncc(c2)N1` [Compound 5, (Z)-2^1H,3^1H-8-Aza-2(5,3)-pyrazolo[3,4-b]pyridina-3(2,4)-benzo[d]imidazola-1(3,5)-pyridina-4(1,3)-benzenacyclooctaphan-7-one], the EC50 in test [1] came out at 213 nM; in test [3], 78 nM; in test [4] it was 124 nM.
For `O=C1CCc2cccc(c2)-c2nccc3[nH]c(nc23)-c2n[nH]c3ccc(cc23)-c2cncc(c2)N1` [Compound 2, (Z)-2^1H,3^1H-5-Aza-2(4,2)-imidazo[4,5-c]pyridina-3 (3,5)-indazola-4(3,5)-pyridina-1(1,3)-benzenacyclooctaphan-6-one], in that order: 58 nM, 224 nM and 22 nM.
For `CN1Cc2cccc(c2)-c2cccc3[nH]c(nc23)-c2n[nH]c3ccc(cc23)-c2cnn(C)c2C1` [Compound 29], in that order: 69 nM, 77 nM and 82 nM.
On to `O=C1NC2CCC(CC2)NCc2cncc(c2)-c2ccc3[nH]nc(c3c2)-c2nc3c1cccc3[nH]2` [Compound 64, (6^1s,6^4s,Z)-1^1H,2^1H-5,7-diaza-1 (2,4),2(3,5)-dibenzo[d]imidazola-3(3,5)-pyridina-6(1,4)-cyclohexanacyclooctaphan-8-one], for which the half-maximal effective concentration (EC50) in test [1] was 147 nM; in test [3], 10000 nM; in test [4] it was > 10000 nM. For the same compound, the inhibition at 10 µM in test [3] (read-out: percent inhibition at 10 μM) worked out at 72%; in test [4] (SW480, read-out: percent inhibition at 10 μM), 47.4%.
`O=C1CCc2cccc(c2)-c2cncc3[nH]c(nc23)-c2n[nH]c3ccc(cc23)-c2cncc(c2)N1` [Compound 3, (Z)-2^3H,3^1H-5-Aza-2(7,2)-imidazo[4,5-c]pyridina-3 (3,5)-indazola-4(3,5)-pyridina-1(1,3)-benzenacyclooctaphan-6-one] registered a concentration giving a half-maximal response (EC50) in test [1] of 28 nM. Moreover, in test [2], the “Conc (nM) of 50% TGF-β3 activity” value turned out to be 50 nM, the “Max. Activity as % TGF-β3 activity” value worked out at 225% and the “Conc (nM) of Max. activity” value was 100 nM. This compound also had an EC50 in test [3] of 42 nM. In test [4], the response was half-maximal at 52 nM (EC50).
As to `Cn1ncc2c1CNCc1cccc(c1)-c1cccc3[nH]c(nc13)-c1n[nH]c3ccc-2cc13` [Compound 15, (Z)-Methyl-1^1H,2^1H,3^1H-6-aza-2(5,3),3 (2,4)-diindazola-1 (4,5)-pyrazola-4(1,3)-benzenacycloheptaphane], the EC50 worked out at 51 nM in test [1], 87 nM in test [3] and 59 nM in test [4].
In the case of `O=C1CCc2cccc(c2)-c2cccc3[nH]c(nc23)-c2n[nH]c3ccc(nc23)-c2cncc(c2)N1` [Compound 7, (Z)-2^1H,3^1H-8-Aza-2(5,3)-pyrazolo[4,3-b]pyridina-3 (2,4)-benzo[d]imidazola-1(3,5)-pyridina-4(1,3)-benzenacyclooctaphan-7-one], the concentration giving a half-maximal response (EC50) in test [1] turned out to be 22 nM; in test [3] it was 560 nM; in test [4], 437 nM.
For `c1cc2cc(c1)-c1cccc3[nH]c(nc13)-c1n[nH]c3ccc(cc13)-c1cncc(c1)OCCC2` [Compound 57], in that order: 25 nM, 637 nM and 475 nM.
